Measured values: US6653300B2, “Pyrazole compounds useful as protein kinase inhibitors” (Vertex Pharmaceuticals Incorporated, priority 2000, dated 2003)
Like-named read-outs stand apart in the source and are kept apart here.

What was measured:
GSK-3β (AA 1-420) = biological target: T1, GSK-3β (AA 1-420) (Homo sapiens, UniProt P49841); experiment: Ki determination for the inhibition of GSK-3 (coupled enzyme system); format: biochemical; settings: 20 μM ATP, 20 nM GSK-3β, 30° C.
T1 construct: GSK-3β (AA 1-420)
T1 sequence (P49841 whole entry, the tested form may be a part): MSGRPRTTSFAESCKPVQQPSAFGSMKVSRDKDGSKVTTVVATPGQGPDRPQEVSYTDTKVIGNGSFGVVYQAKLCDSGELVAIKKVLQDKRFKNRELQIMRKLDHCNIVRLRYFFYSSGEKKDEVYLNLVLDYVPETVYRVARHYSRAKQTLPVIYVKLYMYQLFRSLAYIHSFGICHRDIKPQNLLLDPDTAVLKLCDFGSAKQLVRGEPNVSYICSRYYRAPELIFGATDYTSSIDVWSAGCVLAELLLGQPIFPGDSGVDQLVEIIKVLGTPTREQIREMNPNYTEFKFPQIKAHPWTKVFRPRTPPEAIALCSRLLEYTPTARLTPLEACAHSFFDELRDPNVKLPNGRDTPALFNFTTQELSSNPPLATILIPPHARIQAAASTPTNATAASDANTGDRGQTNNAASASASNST
Summary of the method: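 GSK-3β (AA 1-420, 20 nM) was run in a pyruvate kinase/LDH-coupled NADH assay in 100 mM HEPES pH 7.5, 10 mM MgCl2, 25 mM NaCl, 1 mM DTT, 1.5% DMSO, with 300 μM phosphopeptide substrate. Compound (0.002–30 μM) was preincubated 10 min at 30° C, then 20 μM ATP was added.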

human Src kinase = biological target: T2, human Src kinase (Homo sapiens, UniProt P12931); experiment: SRC inhibition assay (radioactivity-based or spectrophotometric assay); format: biochemical; settings: recombinant human Src kinase, assay A or B
T2 construct: full length recombinant human Src kinase (from Upstate Biotechnology, cat. no. 14-117); purchased Upstate Biotechnology 14-117; host or cells: baculo viral cells
T2 sequence (P12931 whole entry): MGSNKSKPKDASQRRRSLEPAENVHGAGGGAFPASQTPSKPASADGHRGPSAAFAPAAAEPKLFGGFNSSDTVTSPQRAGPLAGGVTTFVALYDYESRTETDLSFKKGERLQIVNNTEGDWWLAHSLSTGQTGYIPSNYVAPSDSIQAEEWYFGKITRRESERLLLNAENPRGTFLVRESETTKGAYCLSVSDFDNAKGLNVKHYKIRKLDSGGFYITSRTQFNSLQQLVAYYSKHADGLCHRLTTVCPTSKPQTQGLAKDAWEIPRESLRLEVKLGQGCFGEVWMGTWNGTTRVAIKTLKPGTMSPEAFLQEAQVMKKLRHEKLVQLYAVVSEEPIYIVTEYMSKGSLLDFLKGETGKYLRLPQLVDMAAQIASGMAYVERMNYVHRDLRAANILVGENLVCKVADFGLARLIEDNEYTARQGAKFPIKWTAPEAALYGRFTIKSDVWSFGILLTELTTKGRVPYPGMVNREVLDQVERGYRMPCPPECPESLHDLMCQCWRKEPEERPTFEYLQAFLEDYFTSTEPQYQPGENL
Procedure: The compounds were evaluated as inhibitors of human Src kinase using either a radioactivity-based assay or spectrophotometric assay. The compounds were assayed as inhibitors of full length recombinant human Src kinase (from Upstate Biotechnology, cat. no. 14-117) expressed and purified from baculo viral cells. […] P-0275). […] In a typical assay, all the reaction components with the exception of ATP were pre-mixed and aliquoted into assay plate wells. […] The assay plate was incubated at 30° C. for 10 min before initiating the reaction with ^33P-ATP. After 20 min of reaction, the reactions were quenched with 150 μl of 10% trichloroacetic acid (TCA) containing 20 mM Na3PO4. The quenched samples were then transferred to a 96-well filter plate (Whatman, UNI-Filter GF/F Glass Fiber Filter, cat no. 7700-3310) installed on a filter plate vacuum manifold. Filter plates were washed four times with 10% TCA containing 20 mM Na3PO4 and then 4 times with methanol. 200 μl of scintillation fluid was then added to each well. The plates were sealed and the amount of radioactivity associated with the filters was quantified on a TopCount scintillation counter. The radioactivity incorporated was plotted as a function of the inhibitor concentration. The data was fitted to a competitive inhibition kinetics model to get the Ki for the compound. The ADP produced from ATP by the human recombinant Src kinase-catalyzed phosphorylation of poly Glu-Tyr substrate was quanitified using a coupled enzyme assay (Fox et al (1998) Protein Sci 7, 2249). In this assay one molecule of NADH is oxidised to NAD for every molecule of ADP produced in the kinase reaction. The disappearance of NADH can be conveniently followed at 340 nm. […] In a typical assay, all the reaction components with the exception of ATP were pre-mixed and aliquoted into assay plate wells. […] The absorbance change at 340 nm with time, the rate of the reaction, was monitored on a molecular devices plate reader. The data of rate as a function of the inhibitor concentration was fitted to competitive inhibition kinetics model to get the Ki for the compound.

Aurora-2 = biological target: T3, Aurora-2 (Homo sapiens, UniProt O14965); experiment: Ki determination for the inhibition of Aurora-2 (coupled enzyme assay); format: biochemical; settings: 70 nM Aurora-2, 30° C.
T3 sequence (O14965 1-403): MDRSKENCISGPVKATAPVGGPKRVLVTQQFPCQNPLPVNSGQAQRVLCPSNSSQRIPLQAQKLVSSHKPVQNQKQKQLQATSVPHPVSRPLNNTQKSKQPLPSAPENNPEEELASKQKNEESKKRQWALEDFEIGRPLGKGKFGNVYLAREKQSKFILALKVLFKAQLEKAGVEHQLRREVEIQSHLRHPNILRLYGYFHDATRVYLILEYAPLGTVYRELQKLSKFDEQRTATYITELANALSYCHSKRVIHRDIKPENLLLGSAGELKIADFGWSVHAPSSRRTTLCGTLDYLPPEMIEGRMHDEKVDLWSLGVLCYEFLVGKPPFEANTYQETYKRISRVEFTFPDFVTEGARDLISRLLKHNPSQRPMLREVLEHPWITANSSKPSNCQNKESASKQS
Summary of the method: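 Ki came from reaction rates plotted against inhibitor concentration, with rates taken as A340 decrease over 5 min at 30° C. Enzyme (70 nM final) was added after 10 min compound preincubation; stock buffer held […], 800 μM LRRASLG, PK/LDH coupling, pH 7.5.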

Row | SMILES | Ki (GSK-3β (AA 1-420)) [nM] | melting point | Ki (human Src kinase; read-out: Ki value on SRC) [nM] | Ki (human Src kinase; read-out: Ki value for SRC) [nM] | Ki (Aurora-2) [nM]
1 | c1ccc(-c2cc(Nc3cc(C4CC4)[nH]n3)nc(Sc3ccc4ccccc4c3)n2)cc1 [IIIa-1, (5-Cyclopropyl-2H-pyrazol-3-yl)-[2-(naphtalen-2-ylsulfanyl)-6-phenylpyrimidin-4-yl]-amine] | 100 to 1000 | 233 to 234 °C | < 100 | – | –
2 | Cc1cc(Nc2cc(-c3ccccc3)nc(Sc3ccc(NC(=O)C(C)C)cc3)n2)n[nH]1 [IIIa-13, [2-(4-Isobutyrylylamino-phenylsulfanyl)-6-phenylpyrimidin-4-yl]-(5-methyl-2H-pyrazol-3-yl)-amine] | – | 201 to 202 °C | – | 1000 to 6000 | –
3 | CC(=O)Nc1ccc(Sc2nc(Nc3cc(C)[nH]n3)c(C)c(-c3ccccc3)n2)cc1 [IIIa-21, [2-(4-Acetamido-phenyl-sulfanyl)-5-methyl-6-phenyl-pyrimidin-4-yl]-(5-methyl-2H-pyrazol-3-yl)-amine] | 1000 to 7000 | 276 to 277 °C | – | 1000 to 6000 | –
4 | Cc1cc(Nc2cc(-c3ccccc3)nc(Sc3ccc(NC(=O)CN(C)C)cc3)n2)n[nH]1 [IIIa-25, {2-[4-(2-Dimethylamino-acetylamino)-phenylsulfanyl]-6-phenyl-pyrimidin-4-yl}-(5-methyl-2H-pyrazol-3-yl)-amine] | – | 213 to 215 °C | – | 1000 to 6000 | –
5 | Cc1cc(Nc2cc(N3CCCCC3)nc(SCc3cccc(Cl)c3)n2)n[nH]1 [IIIa-34, [2-(3-Chloro-benzylsulfanyl)-6-(piperidin-1-yl)-pyrimidin-4-yl]-(5-methyl-2H-pyrazol-3-yl)-amine] | 100 to 1000 | 234 to 235 °C | – | 1000 to 6000 | –
6 | COCCNc1cc(Nc2cc(C)[nH]n2)nc(SCc2ccc(S(=O)(=O)N3CCOCC3)cc2)n1 [IIIa-36, {6-(2-Methoxy-ethylamino)-2-[4-(morpholinesulfonyl)-benzylsulfanyl]-pyrimidin-4-yl}-(5-methyl-2H-pyrazol-3-yl)-amine] | 1000 to 7000 | 193 to 195 °C | – | 1000 to 6000 | –
7 | Cc1cc(Nc2cc(N3CCN(C)CC3)nc(SCc3ccc(S(=O)(=O)N4CCOCC4)cc3)n2)n[nH]1 [IIIa-37, {6-(4-methylpiperazin-1-yl)-2-[4-(morpholinesulfonyl)-benzylsulfanyl]-pyrimidin-4-yl}-(5-methyl-2H-pyrazol-3-yl)-amine] | 100 to 1000 | 206 to 207 °C | – | 1000 to 6000 | –
8 | CC(=O)Nc1ccc(Sc2nc(Nc3cc(C)n[nH]3)cc(N3CCOCC3)n2)cc1 [IIIa-44, [2-(4-Acetamidophenylsulfanyl)-6-(morpholin-4-yl)-pyrimidin-4-yl]-(5-methyl-2H-pyrazol-3-yl)-amine] | – | – | – | 1000 to 6000 | –
9 | Cc1cc(Nc2nc(Sc3ccccc3N)nc3ccccc23)n[nH]1 [IIa-20, [2-(2-Aminophenylsulfanyl)-quinazolin-4-yl]-(5-methyl-2H-pyrazol-3-yl)-amine] | 100 to 1000 | – | – | 1000 to 6000 | 100 to 1000
10 | c1ccc(Sc2nc(Nc3cc(C4CC4)[nH]n3)c3ccccc3n2)cc1 [IIa-21, (5-Cyclopropyl-2H-pyrazol-3-yl)-(2-phenylsulfanyl-quinazolin-4-yl)-amine] | < 100 | 233 to 236 °C | < 100 | – | < 100
11 | Cc1cccc(Sc2nc(Nc3cc(C4CC4)[nH]n3)c3ccccc3n2)c1 [IIa-23, (5-Cyclopropyl-2H-pyrazol-3-yl)-[2-(3-methylphenylsulfanyl)-quinazolin-4-yl]-amine] | < 100 | – | < 100 | – | < 100
12 | COc1cccc(Sc2nc(Nc3cc(C4CC4)[nH]n3)c3ccccc3n2)c1 [IIa-24, (5-Cyclopropyl-2H-pyrazol-3-yl)-[2-(3-methoxyphenylsulfanyl)-quinazolin-4-yl]-amine] | < 100 | – | < 100 | – | < 100
13 | c1ccc2cc(Sc3nc(Nc4cc(C5CC5)[nH]n4)c4ccccc4n3)ccc2c1 [IIa-27, (5-Cyclopropyl-2H-pyrazol-3-yl)-[2-(naphtalen-2-ylsulfanyl)-quinazolin-4-yl]-amine] | – | 285 to 288 °C | < 100 | – | < 100
14 | Cc1ccc(Sc2nc(Nc3cc(C4CC4)[nH]n3)c3ccccc3n2)cc1C [IIa-33, (5-Cyclopropyl-2H-pyrazol-3-yl)-[2-(3,4-dimethylphenylsulfanyl)-quinazolin-4-yl]-amine] | – | 255 to 256 °C | < 100 | – | < 100
15 | Cc1cc(Nc2nc(Sc3ccc(C(=O)NCCCN(C)C)cc3)nc3ccccc23)n[nH]1 [IIa-70, {2-[4-(3-Dimethylamino-propylcarbamoyl)-phenylsulfanyl]-quinazolin-4-yl}-(5-methyl-2H-pyrazol-3-yl)-amine] | – | 210 to 213 °C | – | 1000 to 6000 | 100 to 1000
16 | c1ccc2c(Nc3cc(C4CC4)[nH]n3)nc(Oc3ccc4c(c3)CCCC4)nc2c1 [IIb-4, (5-Cyclopropyl-2H-pyrazol-3-yl)-[2-(5,6,7,8-tetrahydronaphthalen-2-yloxy)-quinazolin-4-yl]-amine] | – | 277 to 279 °C | < 100 | – | < 100
17 | COC(=O)c1cccc(Oc2nc(Nc3cc(C)[nH]n3)c3ccccc3n2)c1 [IIb-9, [2-(3-Methoxycarbonylphenoxy)-quinazolin-4-yl]-(5-methyl-2H-pyrazol-3-yl)-amine] | 100 to 1000 | – | – | 1000 to 6000 | < 100
18 | Cc1cc(Nc2nc(NCc3ccc(F)cc3)nc3ccccc23)n[nH]1 [IIc-13, [2-(4-Fluorobenzylamino)-quinazolin-4-yl]-(5-methyl-2H-pyrazol-3-yl)-amine] | 100 to 1000 | – | < 100 | – | < 100
19 | COC(=O)Cc1ccc(Nc2nc(Nc3cc(C)[nH]n3)c3ccccc3n2)cc1C [IIc-64, [2-(4-Methoxycarbonylmethyl-3-methylphenylamino)-quinazolin-4-yl]-(5-methyl-2H-pyrazol-3-yl)-amine] | 100 to 1000 | 245 to 246 °C | – | – | < 100
20 | Cc1cc(Nc2nc(Nc3ccc(CC(=O)O)c(C)c3)nc3ccccc23)n[nH]1 [IIc-65, [2-(4-Carboxymethyl-3-methylphenylamino)-quinazolin-4-yl]-(5-methyl-2H-pyrazol-3-yl)-amine] | 100 to 1000 | 245 °C (dec.) | – | – | < 100
21 | Cc1cc(Nc2nc(Nc3ccc(Br)cc3)nc3ccccc23)n[nH]1 [IIc-67, [2-(4-Bromophenylamino)-quinazolin-4-yl]-(5-methyl-2H-pyrazol-3-yl)-amine] | < 100 | 290 to 293 °C | – | – | < 100
22 | CCc1cc(Nc2nc(Nc3cc(CC)[nH]n3)c3ccccc3n2)n[nH]1 [IIc-69, (5-Ethyl-2H-pyrazol-3-yl)-[2-(5-ethyl-2H-pyrazol-3-ylamino)-quinazolin-4-yl]-amine] | 1000 to 7000 | 248 to 252 °C | – | – | < 100
23 | c1ccc(Cc2nc(Nc3cc(C4CC4)[nH]n3)c3ccccc3n2)cc1 [IId-3, (2-Benzyl-quinazolin-4-yl)-(5-cyclopropyl-2H-pyrazol-3-yl)-amine] | 1000 to 7000 | 219 to 221 °C | – | – | < 100
